Test results: patent EP4541891A1, “NOVEL LRP1-BINDING PEPTIDE” (Ichimaru Pharcos Co., Ltd., priority 2022, dated 2025)
Bridge positions count the residues as written; N and C are the ends. Square brackets hold non-standard residues; d marks the D form. Ends that are not written are not given here. Peptide text beside a SMILES is read from it. * marks the point of attachment. 5FAM = O=C1OC2(c3ccc(O)cc3Oc3cc(O)ccc32)c2ccc(C(=O)*)cc21; Biotin = O=C1N[C@H]2[C@H](CS[C@H]2CCCCC(=O)*)N1; Nle = CCCC[C@H](N)C(=O)O

Tests used:
[1] = tested on: LRP1 cluster 4-Fc chimeric proteins; assay: Competitive binding assay by ELISA against Sequence 46
Method: (§1) For comparison between the peptide of Sequence 1 with amino acid substitutions and the peptide of Sequence 2 in terms of the LRP1 binding activity and the resistance to protease degradation, a competitive binding assay by ELISA shown in FIG. 2 was constructed. Immediately (zero hour) or 24 hours after the mixing of the peptide of Sequence 2 or the amino acid-substituted peptide with mouse plasma at 37°C, the mixture was diluted to sufficiently lower the plasma concentration to any desired final concentration, and mixed with Sequence 46 (500 nM). This mixture was subjected to the competitive binding assay described above. The binding of Sequence 46 to the LRP1 cluster 4-Fc chimera proteins competes with the binding of Sequence 2 or the amino acid-substituted peptide to the LRP1 cluster 4-Fc chimera proteins, and thus is inhibited depending on the concentration of Sequence 2 or the amino acid-substituted peptide. That is, the binding activity of Sequence 2 or the amino acid-substituted peptide to the LRP1 cluster 4-Fc chimera proteins is detected as competitive inhibitory activity against the binding of Sequence 46. Regarding the binding value of Sequence 46 to the wells in which the LRP1 cluster 4-Fc chimeric proteins were not captured as 100% inhibitory activity and the binding value of Sequence 46 to the wells in which Sequence 2 or the amino acid-substituted peptide was not added as 0% inhibitory activity, the inhibitory activity values of Sequence 2 and the amino acid-substituted peptide were calculated in %.
Sequence 2 incubated with plasma for zero hour inhibited the binding of Sequence 46 in a concentration-dependent manner. […] However, the binding of Sequence 46 (500 nM) in wells loaded with 2,000 nM equivalent Sequence 2 averaged 50.6%.
Immediately or 24 hours after Sequences 1 to 44 were mixed with mouse plasma at 37°C, the mixtures were diluted to sufficiently lower the plasma concentration to a final concentration of 2,000 nM, and mixed with Sequence 46 (500 nM). The obtained mixtures were subjected to the above-described competitive binding assay. […] Other sequences tended to have diminished inhibitory activities.

[2] = Resistance to protease degradation in mouse plasma, read out by competitive binding ELISA; format: in vitro ADME; settings: 37°C, inferred from loss of inhibitory activity
Method: as §1, with “The binding of Sequence 46 to the LRP1 cluster 4-Fc chimera proteins competes with the binding of Sequence 2 or the amino acid-substituted peptide to the LRP1 cluster 4-Fc chimera proteins, and thus is inhibited depending on the concentration of Sequence 2 or the amino acid-substituted peptide.” left out, “%. […]” for “%.”

[3] = tested on: LRP1 cluster 2-Fc chimeric proteins; assay: ELISA binding test of biotin-labeled peptides; settings: biotinylated peptide 1,000 nM to 1.4 nM
Method: (§2) To evaluate the binding activity of the peptides to LRP1, an ELISA-based binding assay was constructed. The ELISA method will be briefly described below. First, a goat antihuman IgG-Fcγ polyclonal antibody (Catalog No. 109-0005-008, manufactured by Jackson Immuno Research) was added to a 96-well Maxisorp plate (Catalog No. 439454, manufactured by Nunc) at 1 µg/50 µL/well using D-PBS, followed by coating overnight at 4°C. Then, 0.5% BSA/D-PBS was further added at 300 µL/well, and blocking was carried out at room temperature for 30 minutes. After washing the plate with 0.1% Tween 20/D-PBS, LRP1 recombinant proteins, namely, LRP1 cluster 2-Fc chimeric proteins (Catalog No. 2368-L2-050, manufactured by R & D Systems), LRP1 cluster 3-Fc chimeric proteins (Catalog No. 48248-L3-050, manufactured by R & D Systems), or LRP1 cluster 4-Fc chimeric proteins (Catalog No. 5395-L4-050, manufactured by R & D Systems), were added at 100 ng/50 µL/well using 0.5% BSA/D-PBS, and allowed to react with the coated antibodies at room temperature for 30 minutes. After washing the plate with 0.1% Tween 20/PBS, Sequences 45 and 46, which were biotinylated peptides, were prepared at an arbitrary concentration using 0.5% BSA/D-PBS, and added at 50µL/well. After causing a reaction at room temperature for 30 minutes, the plate was washed with 0.1% Tween 20/D-PBS. Sequences 45 and 46 bound to the LRP1 recombinant proteins captured on the plate were detected with SA-HRP (Catalog No. ab7403, manufactured by Abeam). For quantification of HRP, TMB ELISA Substrate Solution (Catalog No. 34028, manufactured by Thermo Fisher) was used to measure absorbance at 450 nm.

[4] = tested on: LRP1 cluster 3-Fc chimeric proteins; assay: ELISA binding test of biotin-labeled peptides; settings: biotinylated peptide 1,000 nM to 1.4 nM
Method: as §2

[5] = tested on: LRP1 cluster 4-Fc chimeric proteins; assay: ELISA binding test of biotin-labeled peptides; settings: for binding to the LRP1 cluster 4-Fc chimeric proteins: biotinylated peptide 1,000 nM to 1.4 nM; for EC50: biotinylated peptide, SA-HRP detection, absorbance at 450 nm, n = 4
Method: as §2

[6] = biological target: LRP1 cluster 4-Fc chimeric proteins (UniProt Q07954); assay: competitive ELISA, LRP1 cluster 4-Fc captured; peptide 2,000 nM against biotin-Sequence 46 500 nM
UniProt Q07954, sequence (Q07954 3293-3783, stated change not applied): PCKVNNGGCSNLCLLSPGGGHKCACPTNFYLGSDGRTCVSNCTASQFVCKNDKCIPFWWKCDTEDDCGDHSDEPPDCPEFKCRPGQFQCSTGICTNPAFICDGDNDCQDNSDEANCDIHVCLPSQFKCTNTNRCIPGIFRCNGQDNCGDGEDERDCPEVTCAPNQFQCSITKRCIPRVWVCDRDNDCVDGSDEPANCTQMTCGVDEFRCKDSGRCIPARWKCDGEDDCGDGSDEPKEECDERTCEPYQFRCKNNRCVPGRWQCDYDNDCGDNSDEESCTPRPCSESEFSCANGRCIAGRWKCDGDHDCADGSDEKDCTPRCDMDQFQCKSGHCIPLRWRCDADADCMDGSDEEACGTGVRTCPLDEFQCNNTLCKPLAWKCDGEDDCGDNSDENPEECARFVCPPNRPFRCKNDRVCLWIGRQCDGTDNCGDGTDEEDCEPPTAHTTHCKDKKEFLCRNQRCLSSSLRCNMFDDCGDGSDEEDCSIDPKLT

[7] = biological target: LRP1 cluster 4-Fc chimeric proteins (UniProt Q07954); assay: competitive ELISA, LRP1 cluster 4-Fc captured; Sequence 2 at 500 nM (zero hour in mouse plasma) against biotin-Sequence 46 500 nM
[8] = biological target: LRP1 cluster 4-Fc chimeric proteins (UniProt Q07954); assay: competitive ELISA, LRP1 cluster 4-Fc captured; Sequence 2 at 2,000 nM equivalent after 24 h in mouse plasma at 37 C (about 75% degraded) against biotin-Sequence 46 500 nM

| Molecule | binding to the LRP1 cluster 2-Fc chimeric proteins [3] | binding to the LRP1 cluster 3-Fc chimeric proteins [4] | binding to the LRP1 cluster 4-Fc chimeric proteins [5] | EC50 [5] [nM] | other results |
| --- | --- | --- | --- | --- | --- |
| CCCC[C@@H]1NC(=O)[C@H](CCC(=O)O)NC(=O)[C@H](C)NC(=O)[C@H](CC(C)C)NC(=O)[C@H](CCCC)NC(=O)[C@H](Cc2ccc(O)cc2)NC(=O)[C@H](CCCCN)NC(=O)[C@H](Cc2ccc(O)cc2)NC(=O)[C@H]([C@@H](C)O)NC(=O)[C@@H](NC(=O)[C@@H]2CCCN2C(=O)[C@@H](NC(=O)CNC(=O)[C@H](CCCCNC(=O)c2ccc3c(c2)C(=O)OC32c3ccc(O)cc3Oc3cc(O)ccc32)NC(C)=O)[C@@H](C)O)CSSC[C@@H](C(=O)O)NC1=O [Sequence 2, Ac-Lys(5FAM)-Gly-Thr-Pro-c(Cys-Thr-Tyr-Lys-Tyr-Nle-Leu-Ala-Glu-Nle-Cys)-OH] (Ac-K(5FAM)GTPCTYKY[Nle]LAE[Nle]C-OH; disulfide 5-15) | – | – | – | – | inhibitory activity ([1]; peptide 2,000 nM versus Sequence 46 (500 nM), time point not stated): 79.4%; binding of Sequence 46 (500nM) ([1]; wells loaded with 2,000 nM equivalent Sequence 2, incubated with mouse plasma for 24 hours at 37°C, average): 50.6%; binding of Sequence 46 (500nM) ([1]; wells with 500 nM Sequence 2, incubated with mouse plasma for zero hour, n = 4, average): 52.4%; degraded during the 24-hour incubation with the mouse plasma [2]: approximately 75% |
| CCCC[C@@H]1NC(=O)[C@H](CCC(=O)O)NC(=O)[C@H](C)NC(=O)[C@H](CC(C)C)NC(=O)[C@H](CCCC)NC(=O)[C@H](Cc2ccc(O)cc2)NC(=O)[C@H](CCCCN)NC(=O)[C@H](Cc2ccc(O)cc2)NC(=O)[C@H]([C@@H](C)O)NC(=O)[C@@H](NC(=O)[C@@H]2CCCN2C(=O)[C@@H](NC(=O)CNC(=O)[C@H](CCCCNC(=O)CCCC[C@@H]2SC[C@@H]3NC(=O)N[C@@H]32)NC(C)=O)[C@@H](C)O)CSSC[C@@H](C(=O)O)NC1=O [Sequence 46, Ac-Lys(Biotin)-Gly-Thr-Pro-c(Cys-Thr-Tyr-Lys-Tyr-Nle-Leu-Ala-Glu-Nle-Cys)-OH] (Ac-K(Biotin)GTPCTYKY[Nle]LAE[Nle]C-OH; disulfide 5-15) | little or no binding | little or no binding | selectively and in a peptide concentration-dependent manner | 11 | – |
| Ac-K(Biotin)GTPCTYKY[Nle]LAE[Nle]C-OH (cysteine pairing not given here) [Sequence 45] | little or no binding | little or no binding | selectively and in a peptide concentration-dependent manner | 10.5 | – |
| Ac-K(5FAM)GTPCTYKY[Nle]LAE[Nle]C (disulfide 5-15) [SEQUENCE 2] | – | – | – | – | inhibitory activity (%) [6]: 79.4%; binding of Sequence 46 (%) in the presence of the peptide [7]: 52.4%; binding of Sequence 46 (%) in the presence of the peptide [8]: 50.6% |
